Activity calls are given as the source filed them. No cut-off for these calls is given here.
Assays:
[1] = Antiproliferative activity against human MCF-10A cells assessed as inhibition of cell proliferation incubated for 24 hrs by MTT assay; type: toxicity, cell-based
[2] = Selectivity ratio of IC50 for antiproliferative activity against human MCF-10A cells assessed as inhibition of cell proliferation incubated for 48 hrs by MTT assay to IC50 for antiproliferative activity against human BT-549 cells assessed as inhibition of cell proliferation incubated for 48 hrs by MTT assay; type: toxicity, cell-based; details: MCF-10A cells versus BT-549 cells, read-out: Ratio IC50
[3] = Selectivity ratio of IC50 for antiproliferative activity against human MCF-10A cells assessed as inhibition of cell proliferation incubated for 24 hrs by MTT assay to IC50 for antiproliferative activity against human MDA-MB-231 cells assessed as inhibition of cell proliferation incubated for 24 hrs by MTT assay; type: cell-based; details: MCF-10A cells versus MDA-MB-231 cells, read-out: Ratio IC50
MDA-MB-231 [4] = experiment: Inhibition of tumor sphere formation in human MDA-MB-231 cells at 1 uM incubated for 24 hrs by microscopic analysis; type: functional, cell-based
MDA-MB-231 [5] = experiment: Inhibition of cell proliferation in human MDA-MB-231 cells assessed as reduction in Ki-67 expression at 0.5 to 2 uM incubated for 24 hrs by DAPI staining based immunofluorescence analysis; type: functional; details: dose 0.5-2 µM
MDA-MB-231 [6] = experiment: Inhibition of cell migration in human MDA-MB-231 assessed as reduction in wound healing ability at 0 to 2 uM incubated for 48 hrs by Wound healing assay; type: functional, cell-based; details: dose 0-2 µM
MDA-MB-231 [7] = experiment: Downregulation of LDHA expression in human MDA-MB-231 cells at 1 uM incubated for 24 hrs by DAPI staining based immunofluorescence analysis; type: functional, cell-based
MDA-MB-231 [8] = experiment: Induction of ER stress in human MDA-MB-231 cells assessed as appearance of large number of vacuoles at 1 uM incubated for 24 hrs by TEM analysis; type: functional, cell-based
BT-549 [9] = experiment: Induction of ER stress in human BT-549 cells assessed as upregulation of BIP protein level at 1 uM incubated for 24 hrs by DAPI staining based immunofluorescence analysis; type: functional, cell-based
MDA-MB-231 [10] = experiment: Induction of ER stress in human MDA-MB-231 cells assessed as activation of Xbp-1s protein level incubated for 24 hrs by Western blot analysis; type: functional, cell-based; details: dose 0.5-2 µM
MDA-MB-231 [11] = experiment: Induction of apoptosis in human MDA-MB-231 cells incubated for 24 hrs by Annexin V-PI staining based flow cytometric analysis; type: functional, cell-based; details: dose 0.5-2 µM
BT-549 [12] = experiment: Induction of apoptosis in human BT-549 cells assessed as late apoptotic cells at 0.5 uM incubated for 24 hrs by Annexin V-PI staining based flow cytometric analysis (reference value: 2.95%); type: functional
BT-549 [13] = experiment: Induction of apoptosis in human BT-549 cells assessed as necrotic cells at 0.5 uM incubated for 24 hrs by Annexin V-PI staining based flow cytometric analysis (reference value: 3.32%); type: functional
BT-549 [14] = experiment: Induction of apoptosis in human BT-549 cells assessed as viable cells at 1 uM incubated for 24 hrs by Annexin V-PI staining based flow cytometric analysis (reference value: 93.0%); type: functional; details: read-out: Activity
BT-549 [15] = experiment: Induction of apoptosis in human BT-549 cells assessed as viable cells at 2 uM incubated for 24 hrs by Annexin V-PI staining based flow cytometric analysis (reference value: 93.0%); type: functional; details: read-out: Activity
MDA-MB-231 [16] = experiment: Induction of apoptosis in human MDA-MB-231 cells assessed as late apoptotic cells at 0.5 uM incubated for 24 hrs by Annexin V-PI staining based flow cytometric analysis (reference value: 1.83%); type: functional
MDA-MB-231 [17] = experiment: Induction of apoptosis in human MDA-MB-231 cells assessed as necrotic cells at 2 uM incubated for 24 hrs by Annexin V-PI staining based flow cytometric analysis (reference value: 1.29%); type: functional
MDA-MB-231 [18] = experiment: Induction of apoptosis in human MDA-MB-231 cells assessed as upregulation of cleavage of caspase-3 expression at 0.5 to 2 uM incubated for 24 hrs by Western blot analysis; type: functional, cell-based; details: dose 0.5-2 µM
BT-549 [19] = experiment: Induction of apoptosis in human BT-549 cells assessed as upregulation of cleavage of caspase-8 expression at 0.5 to 2 uM incubated for 24 hrs by Western blot analysis; type: functional, cell-based; details: dose 0.5-2 µM
BT-549 [20] = experiment: Induction of apoptosis in human BT-549 cells assessed as upregulation of cleavage of caspase-9 expression at 0.5 to 2 uM incubated for 24 hrs by Western blot analysis; type: functional, cell-based; details: dose 0.5-2 µM
MDA-MB-231 [21] = experiment: Induction of apoptosis in human MDA-MB-231 cells assessed as upregulation of cleavage of caspase-9 expression at 0.5 to 2 uM incubated for 24 hrs by Western blot analysis; type: functional, cell-based; details: dose 0.5-2 µM
BT-549 [22] = experiment: Antitumor activity against human BT-549 cells xenografted in female BALB/c mouse model assessed as reduction in tumor volume administered subcutaneously and measured every day; type: functional, cell-based; details: dose 5-20 mg/kg, route sc
MDA-MB-231 [23] = experiment: Antitumor activity against human MDA-MB-231 cells xenografted in female BALB/c mouse model assessed as reduction in tumor weight administered subcutaneously and measured every day; type: functional, cell-based; details: dose 5-20 mg/kg, route sc
Mitochondrial membrane = experiment: Disruption of mitochondrial potential loss in human BT-549 cells assessed as increase in JC-1 monomers at 1 uM incubated for 24 hrs by JC-1 staining based flow cytometric analysis (Rvb =1.07%); type: cell membranes
BT-549 [24] = experiment: Antitumor activity against human BT-549 cells xenografted in female BALB/c mouse model assessed as reduction of proliferation rate of tumor at 5 to 20 mg/kg administered subcutaneously and measured every day; type: functional, organism-based; details: dose 5-20 mg/kg, route sc
[25] = Toxicity in female BALB/c mouse xenografted with human MDA-MB-231 cells assessed as effect on pathological changes in heart at 5 to 20 mg/kg, sc by H and E staining based analysis; type: organism-based; details: in vivo, dose 5-20 mg/kg
[26] = Toxicity in female BALB/c mouse xenografted with human MDA-MB-231 cells assessed as effect on pathological changes in liver at 5 to 20 mg/kg, sc by H and E staining based analysis; type: organism-based; details: in vivo, dose 5-20 mg/kg
[27] = Toxicity in female BALB/c mouse xenografted with human BT-549 cells assessed as effect on pathological changes in liver at 5 to 20 mg/kg, sc by H and E staining based analysis; type: organism-based; details: in vivo, dose 5-20 mg/kg
BT-549 [28] = experiment: Antiproliferative activity against human BT-549 cells xenografted in female BALB/c mouse model assessed as fold change in upregulation of BAX protein level at 5 mg/kg administered subcutaneously incubated for 24 hrs by Western blot analysis (reference value: 1.00%); type: functional; details: route sc
BT-549 [29] = experiment: Antiproliferative activity against human BT-549 cells xenografted in female BALB/c mouse model assessed as fold change in upregulation of BAX protein level at 20 mg/kg administered subcutaneously incubated for 24 hrs by Western blot analysis (reference value: 1.00%); type: functional; details: route sc
BT-549 [30] = experiment: Antiproliferative activity against human BT-549 cells xenografted in female BALB/c mouse model assessed as fold change in cleavage of caspase-3 level at 5 mg/kg administered subcutaneously incubated for 24 hrs by Western blot analysis (reference value: 1.00%); type: functional; details: route sc
MDA-MB-231 [31] = experiment: Antimetastatic activity against human MDA-MB-231-Luc cells xenografted in female BALB/C mouse assessed as reduction in metastasis speed at 20 mg/kg administered subcutaneously and measured for 16 days; type: functional, organism-based; details: route sc, time 16.0 day

Compound `CC(C)=CCC/C(C)=C/[C@H]1OC(=O)CC12C[C@H](OC(=O)Cc1ccc(NC(=O)/C=C/c3ccccc3)cc1)C=CC2=O` (some centres not stated) has an IC50 at 24 h [1] of 57.1 µM, a selectivity ratio at 48 h [2] of 72.7 and a selectivity ratio at 24 h [3] of 67.2. For the same compound, the inhibition (MDA-MB-231 [4]) was “Active”, the inhibition (MDA-MB-231 [5]) was “Active” and the inhibition (MDA-MB-231 [6]) was “Active”. For the same compound, the Activity (MDA-MB-231 [7]) was “Active”, the Activity (MDA-MB-231 [8]) was “Active” and the Activity (BT-549 [9]) was “Active”. For the same compound, the Activity (MDA-MB-231 [10]) was “Active”, the Activity (MDA-MB-231 [11]) was “Dose-Dependent Effect” and the Activity (BT-549 [12]) was 3.62%. For the same compound, the Activity (BT-549 [13]) was 3.73%, the viability at 1 µM (BT-549 [14]) was 66% and the viability at 2 µM (BT-549 [15]) was 34.8%. For the same compound, the Activity (MDA-MB-231 [16]) was 16.4%, the Activity (MDA-MB-231 [17]) was 6.53% and the Activity (MDA-MB-231 [18]) was “Active”. For the same compound, the Activity (BT-549 [19]) was “Active”, the Activity (BT-549 [20]) was “Active” and the Activity (MDA-MB-231 [21]) was “Active”. For the same compound, the Activity (BT-549 [22]) was “Dose-Dependent Effect”, the Activity (MDA-MB-231 [23]) was “Dose-Dependent Effect” and the Activity (Mitochondrial membrane) was 56.3%. For the same compound, the Activity (BT-549 [24]) was “Active”, the Activity [25] was “Non-Toxic” and the Activity [26] was “Non-Toxic”. The Activity [27] was “Non-Toxic”, the “fold change (FC)” value (BT-549 [28]) was 1.4 and the “fold change (FC)” value (BT-549 [29]) was 2.21. For the same compound, the “fold change (FC)” value (BT-549 [30]) was 1.64 and the Activity (MDA-MB-231 [31]) was “Active”.

From ChEMBL document CHEMBL6071165, “Design, synthesis and biological evaluation of plant-derived miliusol derivatives achieve TNBC profound regression in vivo” (Eur J Med Chem, 2024)
